According to PubChem BioAssay AID1845208 (Molecular Pharmacology Branch, DTP, NCI, 2023):
“And” between values parts separate entries of the source, which are not always exact repeats. Identical values can stand only once. The source made the active and inactive calls. Rule for the calls: active = viability on the fitted dose curve at most 10% of control; inactive = the rest.

Tested on: NCI-H196 SCLC complex tumor spheroid viability
Experiment: Anticancer human tumor NCI-H196 cell line growth inhibition;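 for IC50: spheroids exposed to compounds for 7 days before readout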;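 for viability, T/C: spheroids exposed to compounds for 7 days before readout; 100% = DMSO vehicle control wells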
Conditions: for viability, T/C: stronger effect = lower value
Source text: Multicellular complex tumor spheroid response to DNA repair inhibitors in combination with DNA-damaging drugs
This study explores the anticancer activities of DNA-damaging drugs and inhibitors of DNA damage repair, both as single agents and in combinations. Complex tumor spheroids comprised of malignant cells, endothelial cells and mesenchymal stem cells served as an in vitro model for human solid tumors. This model system incorporates physiologically relevant features and patient-derived or established malignant cell lines with clinically relevant genetic alterations from many tumor types. Twenty-six patient-derived or established malignant cell lines were evaluated representing sarcoma, melanoma, small cell lung cancer (SCLC), non-small cell lung cancer (NSCLC), as well as bladder, ovarian and pancreatic cancers. The concentration ranges selected for each drug and investigational agent were based upon clinically achievable concentrations if the clinical Cmax of the agent was known.
Compounds. The drugs and compounds olaparib (NSC753686), talazoparib (NSC767125), berzosertib (NSC777718), elimusertib (NSC800525), nedisertib (NSC802822), VX-984 (NSC792969), AZD-1390 (NSC803789), temozolomide (NSC362856), topotecan (NSC609699), trabectedin (NSC813783), staurosporine (NSC755774), and gemcitabine (NSC613327) were obtained from the National Cancer Institute (NCI) Developmental Therapeutics Program Chemical Repository. The FDA-approved anticancer drug set is available from the Developmental Therapeutics Program at https://dtp.cancer.gov/organization/dscb/obtaining/available_plates.htm. […] The stock solutions were prepared in dimethyl sulfoxide (DMSO, Sigma-Aldrich, St. Louis, MO, cat. D2650) at 400-fold the tested concentration and stored at -70 degrees C. Prior to their use, the stock solutions were diluted in fresh medium and the final DMSO concentration in the assay was 0.25% (v/v). All drugs and investigational agents were tested over a range starting from a high concentration at or near the clinical Cmax and decreasing in half-log increments. If the clinical Cmax for an agent had not been determined, the highest concentration tested was 10 microM.
Cell Lines. The patient-derived cancer cell (PDC) lines: 156681-154-R-J1-PDC, 283228-195-R-J1-PDC, 287954-098-R-J1-PDC, 292921-168-R-J2-PDC, 349418-098-R-PDC, 425362-245-T-J1-PDC, 556581-035-R-J1-PDC, and BL0293-F563-PDC were received from the NCI Patient-Derived Models Repository (PDMR, https://pdmr.cancer.gov). The established cell lines HS-SY-2 (RRID:CVCL_8719), MPNST, and SYO-1 (RRID:CVCL_7146) were obtained from the Sloan Kettering Institute. The alveolar soft parts sarcoma cell line ASPS-1 (RRID:CVCL_S738) was established at the NCI and grown from internal seed stocks. The following established cell lines were purchased from the American Type Culture Collection (ATCC, Manassas, VA): G-401 (ATCC, cat. CRL-1441, RRID:CVCL_0270), SW982 (ATCC, cat. HTB-93, RRID:CVCL_1734), VA-ES-BJ (ATCC, cat. CRL-2138, RRID:CVCL_1785), NCI-H719 (ATCC, cat. CRL-5837, RRID:CVCL_1582), NCI-H196 (ATCC, cat. CRL-5823, RRID:CVCL_1509), NCI-H841 (ATCC, cat. CRL-5845, RRID:CVCL_1595), NCI-H1618 (ATCC, cat. CRL-5879, RRID:CVCL_1480), NCI-H1876 (ATCC, cat. CRL-5902, RRID:CVCL_1503), DMS 114 (ATCC, cat. CRL-2066; RRID:CVCL_1174), NCI-H211 (ATCC, cat. CRL-5824; RRID:CVCL_1529), and SW 1271 (ATCC, cat. CRL-2177, RRID:CVCL_1716). The small cell lung cancer cell line COR-L88 was purchased from Sigma-Aldrich (cat. 92031917-1VL, RRID:CVCL_1141). The non-small cell lung cancer cell lines NCI-H226 (RRID:CVCL_1544) and NCI-H322M (RRID:CVCL_1557) were established at the NCI and grown from internal seed stocks. Pooled donor human umbilical vein endothelial cells (HUVEC, Lonza, cat. CC-2519) and human mesenchymal stem cells (hMSC, Lonza, cat. PT-2501) were purchased from Lonza (Walkersville, MD).
Cell Culture. All cells were maintained in an incubator at 37 degrees C and 5% CO2 with 95% humidity. […]

[1] = compound alone, run of 11/07/2019
[2] = compound alone, run of 12/16/2019

Compound	viability, T/C (compound 0.0316 µM)	viability, T/C (compound 0.1 µM)	viability, T/C (compound 0.316 µM)	viability, T/C (compound 1 µM)	viability, T/C (compound 3.16 µM)	viability, T/C (compound 10 µM)	IC50 (curve of compound)	viability, T/C (compound 0.00949 µM)	viability, T/C (compound 0.03 µM)	viability, T/C (compound 0.0949 µM)	viability, T/C (compound 0.3 µM)	viability, T/C (compound 0.949 µM)	viability, T/C (compound 3 µM)	further results
CC(C)n1c(=O)n(C)c2cnc3cc(F)c(-c4ccc(OCCCN5CCCCC5)nc4)cc3c21	102% (2×) and 93.8%	106% and 97.1% and 100%	105% and 95.7% and 95.9%	108% and 102% and 105%	113% and 112% and 110%	108% and 110% and 111%	> 10 µM	–	–	–	–	–	–	–
CC1COCCN1c1cc(-c2ccnn2C)c2ccnc(-c3ccn[nH]3)c2n1 (centres undefined)	85.4% and 90.9% and 88.6%	76.7% and 72.3% and 79.4%	65.1% and 66% and 67.1%	60.3% and 53.1% and 61.3%	53% (2×) and 49.1%	44.3% and 46.2% and 48.6%	4.36 µM and 2.77 µM and 7.31 µM	–	–	–	–	–	–	–
CC[C@@]1(O)C(=O)OCc2c1cc1n(c2=O)Cc2cc3c(CN(C)C)c(O)ccc3nc2-1	–	–	–	–	–	–	–	99.5% [middle of 10 runs]	95.5% [middle of 10 runs]	102% [middle of 10 runs]	105% [middle of 10 runs]	–	–	viability, T/C (compound 0.003 µM): 101% [middle of 10 runs]; IC50 [1]: > 0.3 µM; IC50 [2]: > 0.3 µM
CNCc1ccc(-c2cc(-c3nc(-c4ccc(S(=O)(=O)C(C)C)cc4)cnc3N)on2)cc1	–	–	–	–	–	–	> 3 µM	101% and 97.8% and 106%	108% and 111% and 109%	98% and 119% and 105%	106% and 107% and 101%	95% and 98.1% and 96.3%	88.5% and 83.7% and 94%	–
COc1cc(C)[nH]c(=O)c1CN1CCc2c(Cl)cc(C(OC)C3COC3)c(Cl)c2C1=O (centres undefined)	93.9% and 96.1% and 106%	101% (2×) and 102%	92.7% and 96% and 91.1%	101% and 94.2% and 103%	97.1% and 89.7% and 101%	94.5% and 97.7% and 100%	> 10 µM	–	–	–	–	–	–	–
COc1cc2c(cc1O)CCNC21CSC2c3c(OC(C)=O)c(C)c4c(c3C(COC1=O)N1C(O)C3Cc5cc(C)c(OC)c(O)c5C(C21)N3C)OCO4 (centres undefined)	–	–	–	–	–	–	–	–	–	–	–	–	–	viability, T/C (compound 30 pM): 103% [middle of 10 runs]; viability, T/C (compound 94.9 pM): 105% [middle of 10 runs]; viability, T/C (compound 0.0003 µM): 103% [middle of 10 runs]; viability, T/C (compound 0.000949 µM): 84.7% [middle of 10 runs]; viability, T/C (compound 0.003 µM): 7.79% [middle of 10 runs]; IC50 [2]: 1.62 nM [middle of 8 runs]
COc1ccc([C@@H](O)c2cc(-c3ncnc4cc(N5CCOCC5)ccc34)c(F)cc2Cl)nn1	96.5% and 98.3% and 102%	101% and 94.9% and 98.9%	89.8% and 87.1% and 95.5%	78.1% and 80.4%	65% and 69% and 75.8%	49.7% and 56.2% and 59.8%	> 10 µM	–	–	–	–	–	–	outcome (compound 1 µM): inactive
Cc1cc(C)c(CNC(=O)c2cc(-c3ccc(CN4CCOCC4)cc3)cc3c2cnn3C2CCCC2)c(=O)[nH]1	104% and 97.2% and 99.1%	96.1% and 97.9% and 103%	93.3% and 97% and 102%	91.3% and 96.2% and 98.9%	101% and 94% and 103%	106% and 103% and 111%	> 10 µM	–	–	–	–	–	–	–
Cc1sc2c(c1C)C(c1ccc(Cl)cc1)=NC(CC(=O)Nc1ccc(O)cc1)c1nnc(C)n1-2 (centres undefined)	–	–	–	–	–	–	0.763 µM and 0.77 µM and 0.666 µM	102% and 106% and 98%	101% and 108% and 93.3%	91.3% and 94.5% and 91.4%	85.1% and 78% and 76.3%	41.5% and 43.1% and 38.3%	23% and 23.8% and 20.7%	–
Cn1ncnc1[C@H]1c2n[nH]c(=O)c3cc(F)cc(c23)N[C@@H]1c1ccc(F)cc1	–	–	–	–	–	–	> 3 µM	108% and 104% and 101%	102% and 96.7% and 99%	103% and 98.2% and 102%	102% and 98.1% and 100%	104% and 96.5% and 89.3%	108% and 92% and 87.2%	–
Cn1nnc2c(C(N)=O)ncn2c1=O	–	–	–	95.3% [middle of 10 runs]	101% [middle of 10 runs]	104% [middle of 10 runs]	–	–	–	–	–	–	–	viability, T/C (compound 31.6 µM): 107% [middle of 10 runs]; IC50 [1]: > 100 µM
O=C(c1cc(Cc2n[nH]c(=O)c3ccccc23)ccc1F)N1CCN(C(=O)C2CC2)CC1	–	–	–	–	–	–	> 30 µM	–	–	99.6% and 102% and 108%	100% and 93.2% and 96%	90.1% and 99.8% and 99.6%	98.9% and 93.9% and 98.2%	viability, T/C (compound 9.49 µM): 92.9% and 89.8% and 95.1%; viability, T/C (compound 30 µM): 85.1% (2×) and 69.1%
[2H]c1nc(C)nc([2H])c1-c1cc(NC[C@@H](C)c2cccc3c(C(=O)NC)ccnc23)ncn1	104% and 105% and 99.6%	102% and 99.5% and 104%	98.1% and 106% and 96.8%	99.2% and 106% and 97.2%	103% and 99.3% and 102%	103% and 107% and 104%	> 10 µM	–	–	–	–	–	–	–
